Measured values published in patent publication US7879814B2, “Methods and therapeutic compositions in the treatment of advanced cancer” (priority 2003, dated 2011).
Read-outs that look alike come from different tables or passages of the source.

Assays:
[1] = Pharmacokinetics of ATP on weeks (cycles) 1, 3 and 8 of the Phase I study; type: in vivo, human
Source text: Two of the seven evaluable patients had advanced prostate cancer with bone metastases and one each had advanced mesothelioma, metastatic breast cancer, metastatic melanoma, metastatic colon cancer and renal cell carcinoma.

[2] = tested on: patients with advanced malignancies (solid tumors); test: Phase I study of ATP by 8 hour intravenous infusion once weekly, out-patient (DMS #D0005): safety, tolerability, clinical efficacy; type: in vivo, human
Experimental: Adenosine 5′-triphosphate (ATP) is provided as a sterile solution in single use vials. […] Storage of the clinical solutions is at controlled refrigerated temperature (2-8° C.). […] The concentration of the final sterile solution is 8 mg/ml and is administered by continuous intravenous infusions using an Ivac or similar infusion device through venous access in a peripheral vein. If venous access is a problem, either a Hickman catheter or its equivalent or an Infusaport or its equivalent, are inserted to provide vascular access. […] All follow-up care is administered in hospital outpatient department or at the patient's home or clinic.
Title of the Study: “A Phase I Study of the Safety and Pharmacokinetics of Adenosine 5′-Triphosphate (ATP) When Administered by Intravenous Infusion on a Multiple Weekly Dose Schedule to Patients with Advanced Malignancies (Solid Tumors)”.
Nine qualified patients have been enrolled in the study as of Jan. 1, 2002; seven of which received the first 3 cycles of the study drug and are therefore evaluable for the primary endpoints. Two of the seven evaluable patients had advanced prostate cancer with bone metastases and one each had advanced mesothelioma, metastatic breast cancer, metastatic melanoma, metastatic colon cancer and renal cell carcinoma.

[3] = cited from earlier work; for whole blood ATP concentration higher than pretreatment value (average): 24 hours of infusion
[4] = tested on: refractory stage IIIB/IV non-small cell lung cancer patients; details: cited from earlier work
[5] = tested on: stage IIIB/IV non-small cell lung cancer patients; details: cited from earlier work
[6] = tested on: men with advanced, non-resectable cancer; details: cited from earlier work
[7] = week 1 pre-dose to week 13 follow-up
[8] = 30-hours infusions, 20 up to 75 mcg/kg/min
[9] = 50 or 65 mcg/kg/min, 96 hours once every 4 weeks, 15 patients
[10] = 50 or 65 mcg/kg/min, 96 hours once every 4 weeks
[11] = 50, 75 or 100 mcg/kg/min, 96 hr infusion once every 4 weeks

Nc1ncnc2c1ncn2[C@@H]1O[C@H](COP(=O)(O)OP(=O)(O)OP(=O)(O)O)[C@@H](O)[C@H]1O [ATP, Adenosine 5′-triphosphate]
total blood ATP pools after infusion ([1]; at 24 hours): decline to baseline (time 0) | average increases in Initial ATP Release Rates (from Red Blood Cells) ([1]; time 0 to 8 hours): 200-400% | increases in total blood ATP pools (red blood cell pools) ([1]; time 0 to 8 hours (end of the infusions)): 70-90% | grade 2 cardiac ischemia or grades 3 or 4 toxicity ([2]; 8 hour iv infusion once weekly, up to 100 mcg/kg/min): No grade 2 cardiac ischemia or grades 3 or 4 toxicity have been observed | appetite loss ([2]; all patients, screening to week 10 (follow-up), return to screening baseline at week 13): Decreases | SGOT, SGPT and serum LDH ([2]; all patients, week 1 (pre-dose) to week 13 (follow-up)): Consistent decreases | maximum allowable dose tolerated ([2]; continuous 8 hours iv infusion once weekly for eight weeks, seven of nine patients (the seven evaluable)): 100 µg/kg/min | appetite and energy (subjective patient comments) ([2]; during the study, several patients): improved appetite and energy | tolerability in terminal patients ([2]; patient 506): well tolerated | Global Health Status of the QOL EORTC QLQ-C30 ([2]; screening (week <1) to follow-up (week 10), decline at week 13 follow-up): Increases | Skeletal Muscle Strength (voluntary) ([2]; screening (week <1) to week 8 (last infusion cycle)): Small increases | Kamofsky Performance Status [2, 7]: Small increases | body weight [2, 7]: Stabilization | whole blood ATP concentration higher than pretreatment value (average) ([3]; 50 mcg/kg/min): 63% | whole blood ATP concentration higher than pretreatment value (average) ([3]; 75 mcg/kg/min): 67% | whole blood ATP concentration higher than pretreatment value (average) ([3]; 100 mcg/kg/min): 113% | course of blood ATP concentrations ([3]; interval between 24 and 96 hours of the infusion): relatively constant or slightly declined | adverse events of grade 1 (mild) [4, 8]: 81 | adverse events of grade 2 (moderate) [4, 8]: 5 | adverse events of grade 3 (severe) [4, 8]: none | adverse events of grade 4 (life threatening) [4, 8]: 5 | electrocardiograms in patients with chest discomfort ([4]; 30-hours infusions): did not exhibit changes suggestive of myocardial ischemia | effects on body weight, voluntary muscle strength and Quality of Life domains ([4]; ATP plus best supportive care vs best supportive care only): beneficial effects | resolution of side effects ([4]; after lowering the rate of ATP infusion): resolved within minutes | patients reporting severe (grade 3) adverse effects [5, 9]: Six | patients with life-threatening (grade 4) dyspnea [5, 9]: two | disease status after treatment [5, 10]: the majority of patients exhibited stable disease | hematologic, renal, hepatic, or gastrointestinal toxicity [5, 10]: No significant | tumor shrinking [5, 10]: no significant tumor shrinking was observed | effects on weight gain, performance status and overall survival ([5]; non-small cell lung cancer patients): beneficial effects | share of all adverse events that were grade 1 or 2 (mild or moderate) [6, 11]: 79% | share of all adverse events that were grade 3 or 4 (severe or life-threatening) [6, 11]: 21% | maximum tolerated dose ([6]; 96-hours infusions, patients with advanced cancers): 50 µg/kg/min | events of grade 3 anxiety ([6]; 96 hr infusions): one | events of grade 3 headache ([6]; 96 hr infusions): 1 event | grade 3 or 4 events of chest pain ([6]; 96 hr infusions): 5 events | grade 3 or 4 events of dizziness ([6]; 96 hr infusions): 1 event | grade 3 or 4 events of dyspnea ([6]; 96 hr infusions): 6 events | grade 3 or 4 events of hypotension ([6]; 96 hr infusions): 1 event | grade 3 or 4 events of hypoxia ([6]; 96 hr infusions): 2 events | grade 3 or 4 events of nausia/emesis ([6]; 96 hr infusions): 2 events
